Measured values reported in PubChem BioAssay (NCI).
Several values for one entry are separate records, joined by “and”; a condition that tells them apart may be missing. Equal entries are not always repeated.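 In this assay, cells in 96-well plates receive the compound at five concentrations for 48 hours. Endpoints are linearly interpolated between the surrounding concentrations. GI50: concentration for 50% inhibition of growth. TGI: concentration producing complete growth inhibition.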

Experiments:
Test in all cases: inhibition of tumour cell growth, NCI panel, 48 h
M14 melanoma = test system: M14 melanoma
HCT-116 colon = test system: HCT-116 colon
HCC-2998 colon = test system: HCC-2998 colon
RPMI-8226 leukemia = test system: RPMI-8226 leukemia
MCF7 breast = test system: MCF7 breast
SW-620 colon = test system: SW-620 colon
SK-MEL-2 melanoma = test system: SK-MEL-2 melanoma
NCI/ADR-RES ovarian = test system: NCI/ADR-RES ovarian
HL-60(TB) leukemia = test system: HL-60(TB) leukemia
COLO 205 colon = test system: COLO 205 colon

CCOC(=O)Nc1ccc2c(c1)N(C(=O)CCN(CC)CC)c1ccccc1S2
TGI (M14 melanoma): 48.6 µM
GI50 (HCT-116 colon): 12.5 µM
TGI (HCT-116 colon): > 31.6 µM and 39.9 µM
TGI (HCC-2998 colon): 32.8 µM and 75.7 µM
GI50 (RPMI-8226 leukemia): 13 µM
TGI (RPMI-8226 leukemia): 51 µM and 47.5 µM
GI50 (MCF7 breast): 31.3 µM
TGI (MCF7 breast): > 94.3 µM
GI50 (SW-620 colon): 52.5 µM
TGI (SW-620 colon): 59.3 µM and 122 µM
GI50 (SK-MEL-2 melanoma): 30.5 µM
TGI (SK-MEL-2 melanoma): 43.6 µM and 83.7 µM
TGI (NCI/ADR-RES ovarian): 86.8 µM
GI50 (HL-60(TB) leukemia): 16.1 µM
TGI (HL-60(TB) leukemia): 45.9 µM and 57.7 µM
GI50 (COLO 205 colon): 47 µM
TGI (COLO 205 colon): 47.7 µM and 120 µM

FC(F)(F)c1cc(-c2ncn(/C=C\c3nnco3)n2)cc(C(F)(F)F)c1
GI50 (M14 melanoma): 0.372 µM
TGI (M14 melanoma): > 34.6 µM
GI50 (HCT-116 colon): 0.0621 µM
TGI (HCT-116 colon): > 41.9 µM
GI50 (HCC-2998 colon): 0.317 µM
TGI (HCC-2998 colon): 11.1 µM
GI50 (RPMI-8226 leukemia): 0.0336 µM
TGI (RPMI-8226 leukemia): 15.6 µM
GI50 (MCF7 breast): 0.0414 µM
TGI (MCF7 breast): 2.94 µM
GI50 (SW-620 colon): 0.0536 µM
TGI (SW-620 colon): > 43.1 µM
GI50 (SK-MEL-2 melanoma): 0.031 µM
TGI (SK-MEL-2 melanoma): 0.251 µM
GI50 (NCI/ADR-RES ovarian): 0.304 µM
TGI (NCI/ADR-RES ovarian): > 63.5 µM
GI50 (HL-60(TB) leukemia): 0.0485 µM
TGI (HL-60(TB) leukemia): 13.4 µM
GI50 (COLO 205 colon): 0.055 µM
TGI (COLO 205 colon): 14 µM

CC1(C)OC2C(CO)OC(n3ccc(N)nc3=O)C2O1 (configuration not stated)
TGI (M14 melanoma): > 100 µM
TGI (HCT-116 colon): > 100 µM
TGI (HCC-2998 colon): > 100 µM
TGI (RPMI-8226 leukemia): > 100 µM
TGI (MCF7 breast): > 100 µM
TGI (SW-620 colon): > 100 µM
TGI (SK-MEL-2 melanoma): > 100 µM
TGI (NCI/ADR-RES ovarian): > 100 µM
TGI (HL-60(TB) leukemia): > 100 µM
TGI (COLO 205 colon): > 100 µM

COc1cc2c(cc1OCCCCn1c(-c3cccs3)nc3ccccc31)N=C[C@@H]1CCCN1C2=O
GI50 (M14 melanoma): 1.35 µM
TGI (M14 melanoma): 2.8 µM
GI50 (HCT-116 colon): 1.75 µM
GI50 (HCC-2998 colon): 2.08 µM
TGI (HCC-2998 colon): 4.5 µM
GI50 (RPMI-8226 leukemia): 0.314 µM
TGI (RPMI-8226 leukemia): 1.62 µM
GI50 (MCF7 breast): 0.66 µM
TGI (MCF7 breast): 12.5 µM
GI50 (SW-620 colon): 1.84 µM
TGI (SW-620 colon): 10.3 µM
GI50 (SK-MEL-2 melanoma): 1.47 µM
TGI (SK-MEL-2 melanoma): 4.68 µM
GI50 (NCI/ADR-RES ovarian): 3.24 µM
TGI (NCI/ADR-RES ovarian): 13.9 µM
GI50 (HL-60(TB) leukemia): 5.18 µM
TGI (HL-60(TB) leukemia): 53.4 µM
GI50 (COLO 205 colon): 1.07 µM
TGI (COLO 205 colon): 2.58 µM

C=C1C(=O)OC2CC1C(OC(C)=O)C/C(C)=C/CC/C(C)=C\CCC2(C)O (configuration not stated)
TGI (M14 melanoma): > 36.9 µM and 29.6 µM
TGI (HCT-116 colon): 12.2 µM and 7.66 µM
TGI (HCC-2998 colon): 17.5 µM and 21.1 µM
TGI (RPMI-8226 leukemia): 7.9 µM and 7.55 µM
TGI (MCF7 breast): 16.2 µM and 26.3 µM
TGI (SW-620 colon): 12.6 µM and 8.91 µM
GI50 (SK-MEL-2 melanoma): 8.67 µM and 21.4 µM
TGI (SK-MEL-2 melanoma): 22.5 µM and > 100 µM
TGI (NCI/ADR-RES ovarian): 15.4 µM and 17.4 µM
TGI (HL-60(TB) leukemia): 2.64 µM
TGI (COLO 205 colon): 14.4 µM and > 100 µM

c1ccc(-c2cn(-c3ccccc3)c(-c3ccccc3)n2)cc1
GI50 (M14 melanoma): 11 µM
TGI (M14 melanoma): 23.8 µM
GI50 (HCT-116 colon): 1.76 µM
TGI (HCT-116 colon): 3.27 µM
GI50 (HCC-2998 colon): 7.82 µM
TGI (HCC-2998 colon): 20.6 µM
GI50 (RPMI-8226 leukemia): 2.31 µM
TGI (RPMI-8226 leukemia): 5.47 µM
GI50 (MCF7 breast): 1.59 µM
TGI (MCF7 breast): 5.76 µM
GI50 (SW-620 colon): 1.95 µM
TGI (SW-620 colon): 3.83 µM
GI50 (SK-MEL-2 melanoma): 13.9 µM
TGI (SK-MEL-2 melanoma): 27.2 µM
GI50 (NCI/ADR-RES ovarian): 19.6 µM
TGI (NCI/ADR-RES ovarian): 44.9 µM
GI50 (HL-60(TB) leukemia): 3.07 µM
TGI (HL-60(TB) leukemia): 17.9 µM
GI50 (COLO 205 colon): 10.9 µM
TGI (COLO 205 colon): 23.4 µM

CCCOc1ccc(/C=N/Nc2cc(C)nc3ccc(Cl)cc23)cc1
GI50 (M14 melanoma): 1.69 µM
TGI (M14 melanoma): 3.23 µM
GI50 (HCT-116 colon): 1.7 µM
TGI (HCT-116 colon): 3.32 µM
GI50 (HCC-2998 colon): 2.03 µM
TGI (HCC-2998 colon): 3.53 µM
GI50 (RPMI-8226 leukemia): 1.81 µM
TGI (RPMI-8226 leukemia): 3.99 µM
GI50 (MCF7 breast): 1.67 µM
TGI (MCF7 breast): 3.4 µM
GI50 (SW-620 colon): 1.96 µM
TGI (SW-620 colon): 3.79 µM
GI50 (SK-MEL-2 melanoma): 1.73 µM
TGI (SK-MEL-2 melanoma): 3.22 µM
GI50 (NCI/ADR-RES ovarian): 1.9 µM
TGI (NCI/ADR-RES ovarian): 3.81 µM
GI50 (HL-60(TB) leukemia): 1.83 µM
TGI (HL-60(TB) leukemia): 3.78 µM
GI50 (COLO 205 colon): 1.82 µM
TGI (COLO 205 colon): 3.4 µM
